Like-named read-outs stand apart in the source and are kept apart here.
Key:
[1] = in vivo; details: rat
[2] = test system: p-phenylquinone-induced writhing; experiment: p-phenylquinone-induced writhing test (analgesic activity); format: in vivo; details: an hour after administration
Method: (§1) Preparations of the compound were administered orally and/or parenterally in a suspension in 0.59% carboxymethylcellulose in pH neutral physiological saline.
The determination was made an hour after administration of the product. The inhibitory effect on abdominal contractions induced by phenyl-p-quinone was calculated as follows: [formula]
Table IV reports the doses, the administration routes and their effectiveness expressed as % protection.

[3] = test system: platelet aggregation (ADP-induced); experiment: in vitro anti-platelet aggregant activity (Born's method, ADP); format: cell-based, rat; details: Rattus norvegicus, Platelet, ADP 7.08 μmol/l, read-out: Inhibition % (platelet aggregation)
Method: This activity was studied in vitro following Born's method (G. W. R. Born, Nature, 194, 937 (1962)) and inducing platelet aggregation with ADP. […] For the aggregation test, 0.2 ml of platelet rich plasma was mixed with a NaCl solution (0.9%) to which the test substance was added up to a final volume of 0.6 ml. Incubation was fixed at 3 minutes at 27° C. After aggregation was induced with ADP, the course of the aggregation was monitored continuously with an Elvi 840 Aggregometer (Elvi Logos--Milan). The antiaggregant effects were determined by the difference in the light transmission of the sample with respect to that of the ADP control. The test compound was compared with aspirin, which has known antiplatelet aggregant activity (H. J. Weiss et al., J. Clin. Inv., 47, 2169 (1968); Platelet Aggregation and Drugs, edited by L. Caprino and E. C. Rossi, page 235, Academic Press (London), 1974).
Table VI reports the inhibition of platelet aggregation with various doses of the compounds tested at a constant ADP concentration.

[4] = test system: hyperthermia induced by dry purified beer yeast; experiment: antipyretic activity, beer yeast-induced hyperthermia; format: in vivo, Wistar strain male albino rats
Method: as §1
This effect was evaluated by inducing hyperthermia in Wistar strain male albino rats with an average weight of 250±10 g, injecting them intraperitoneally with a 10% suspension of dry purified beer yeast (Carlo Erba) in a volume of 10 ml/Kg of body weight, according to the method of S. Wong et al. (J. Pharmac. Exp. Ther., 185 (1), 127 (1973)).

[5] = test system: gastric mucosa; experiment: gastric tolerance (ulcerogenic activity); details: orally, four consecutive days; for Incidence % / 10: groups of 10 animals; for Mean number severity: severity scale 0-5
Method: This was studied by testing ulcerogenic activity in male Wistar rats weighing an average of 180 g, using groups of 10 animals each. Three doses of each substance were used, and one group of animals was treated with vehicle only, in a volume of 10 ml/g body weight. Each dose was administered orally for four consecutive days, and the rats were killed on the fifth day and autopsied. The ulcerogenic effect was evaluated on the following scale:
(1) each hemorrhage point >1 mm was evaluated as 1 lesion
(2) the hemorrhage points <1 were counted as follows:
(b) from 1 to 19 2 lesions
(c) from 1 to 29 3 lesions
(2) gastric mucosa irritation
(3) hemorrhage points <1 mm
(4) hemorrhage points from 1 to 3 mm
(5) hemorrhage points >3 mm
This scale was used to calculate the following index of gastric damage: [formula]

[6] = in vivo; details: mouse
[7] = test system: carragenin-induced edema; experiment: carragenin-induced edema test (antinflammatory activity); format: in vivo, rats
Method: as §1
This effect was evaluated with an experimental model reproducing actue inflammation in rats: the carragenin-induced edema test was used, according to the method of C. A. Winter (G. Pharmac. Exp. Ther., 141, 369 (1963)). Table III reports the compounds tested, their concentrations, administration routes and relative percent edema inhibition.

[8] = test system: mouse; details: in vivo
[9] = test system: carragenin-induced edema; details: background statement, prior ester; cited from earlier work
[10] = test system: healthy animals; details: background statement, prior ester; cited from earlier work

## Cc1ccc(C(=O)c2ccc(CC(=O)NCC(=O)Nc3cccc(Cl)c3)n2C)cc1 [Compound 1b]
[1]; ip
  LD50: 1200 mg/kg
[1]; po
  LD50: > 1420 mg/kg
[2]; i.p., 5 mg/kg
  Protection %: 18.7%
[2]; i.p., 10 mg/kg
  Protection %: 42.3%
[2]; i.p., 20 mg/kg
  Protection %: 69.5%
[2]; os, 5 mg/kg
  Protection %: 16.1%
[2]; os, 10 mg/kg
  Protection %: 36.2%
[2]; os, 20 mg/kg
  Protection %: 69.1%
[3]; 1 γ/ml
  inhibition at 1 µg/mL: 25%
[3]; 5 γ/ml
  inhibition at 5 µg/mL: 100%
[3]; 10 γ/ml
  inhibition at 10 µg/mL: 100%
[4]; i.p., 50 mg/kg, 1 h
  Temperature decrease %: 16.0%
[4]; i.p., 50 mg/kg, 2 h
  Temperature decrease %: 19.3%
[4]; i.p., 50 mg/kg, 3 h
  Temperature decrease %: 33.0%
[4]; i.p., 75 mg/kg, 1 h
  Temperature decrease %: 26.0%
[4]; i.p., 75 mg/kg, 2 h
  Temperature decrease %: 36.1%
[4]; i.p., 75 mg/kg, 3 h
  Temperature decrease %: 40.0%
[4]; i.p., 100 mg/kg, 1 h
  Temperature decrease %: 39.1%
[4]; i.p., 100 mg/kg, 2 h
  Temperature decrease %: 40.0%
[4]; i.p., 100 mg/kg, 3 h
  Temperature decrease %: 30.5%
[4]; os, 50 mg/kg, 1 h
  Temperature decrease %: 19.0%
[4]; os, 50 mg/kg, 6 h
  Temperature decrease %: 19.5%
[4]; os, 50 mg/kg, 24 h
  Temperature decrease %: 29.8%
[4]; os, 75 mg/kg, 1 h
  Temperature decrease %: 20.0%
[4]; os, 75 mg/kg, 6 h
  Temperature decrease %: 30.0%
[4]; os, 75 mg/kg, 24 h
  Temperature decrease %: 40.1%
[4]; os, 100 mg/kg, 1 h
  Temperature decrease %: 30.0%
[4]; os, 100 mg/kg, 6 h
  Temperature decrease %: 33.1%
[4]; os, 100 mg/kg, 24 h
  Temperature decrease %: 31.2%
[5]; 50 mg/kg
  Index gastric damage: 8
  Index gastric damage, signed figure (untitled; difference from Carrier index 8): +0
  Mean number lesions: 1
  Incidence % / 10: 5 %/10
  Mean number severity: 2
[5]; 100 mg/kg
  Index gastric damage: 11
  Index gastric damage, signed figure (untitled; difference from Carrier index 8): +3
  Mean number lesions: 2
  Incidence % / 10: 7 %/10
  Mean number severity: 2
[5]; 200 mg/kg
  Index gastric damage: 14
  Index gastric damage, signed figure (untitled; difference from Carrier index 8): +6
  Mean number lesions: 3
  Incidence % / 10: 8 %/10
  Mean number severity: 3
[6]; ip
  LD50: 1370 mg/kg
[6]; po
  LD50: > 1500 mg/kg
[7]; i.p., 10 mg/kg, 3 h
  Oedema inhibition %: 30.1%
[7]; i.p., 10 mg/kg, 6 h
  Oedema inhibition %: 29.0%
[7]; i.p., 10 mg/kg, 24 h
  Oedema inhibition %: 0.0%
[7]; i.p., 50 mg/kg, 3 h
  Oedema inhibition %: 49.2%
[7]; i.p., 50 mg/kg, 6 h
  Oedema inhibition %: 43.5%
[7]; i.p., 50 mg/kg, 24 h
  Oedema inhibition %: 2.3%
[7]; i.p., 100 mg/kg, 3 h
  Oedema inhibition %: 65.4%
[7]; i.p., 100 mg/kg, 6 h
  Oedema inhibition %: 62.0%
[7]; i.p., 100 mg/kg, 24 h
  Oedema inhibition %: 16.4%
[7]; os, 10 mg/kg, 3 h
  Oedema inhibition %: 29.8%
[7]; os, 10 mg/kg, 6 h
  Oedema inhibition %: 22.3%
[7]; os, 10 mg/kg, 24 h
  Oedema inhibition %: 0.0%
[7]; os, 50 mg/kg, 3 h
  Oedema inhibition %: 47.3%
[7]; os, 50 mg/kg, 6 h
  Oedema inhibition %: 44.1%
[7]; os, 50 mg/kg, 24 h
  Oedema inhibition %: 0.0%
[7]; os, 100 mg/kg, 3 h
  Oedema inhibition %: 61.9%
[7]; os, 100 mg/kg, 6 h
  Oedema inhibition %: 59.8%
[7]; os, 100 mg/kg, 24 h
  Oedema inhibition %: 15.3%

## COc1ccc(OC)c(NC(=O)CNC(=O)Cc2ccc(C(=O)c3ccc(C)cc3)n2C)c1 [Compound 1g]
[2]; i.p., 5 mg/kg
  Protection %: 23.0%
[2]; i.p., 10 mg/kg
  Protection %: 56.9%
[2]; i.p., 20 mg/kg
  Protection %: 74.2%
[2]; os, 5 mg/kg
  Protection %: 20.1%
[2]; os, 10 mg/kg
  Protection %: 50.3%
[2]; os, 20 mg/kg
  Protection %: 76.0%
[4]; i.p., 50 mg/kg, 1 h
  Temperature decrease %: 26.0%
[4]; i.p., 50 mg/kg, 2 h
  Temperature decrease %: 27.0%
[4]; i.p., 50 mg/kg, 3 h
  Temperature decrease %: 26.0%
[4]; i.p., 75 mg/kg, 1 h
  Temperature decrease %: 32.1%
[4]; i.p., 75 mg/kg, 2 h
  Temperature decrease %: 34.5%
[4]; i.p., 75 mg/kg, 3 h
  Temperature decrease %: 40.0%
[4]; i.p., 100 mg/kg, 1 h
  Temperature decrease %: 39.1%
[4]; i.p., 100 mg/kg, 2 h
  Temperature decrease %: 46.0%
[4]; i.p., 100 mg/kg, 3 h
  Temperature decrease %: 41.0%
[4]; os, 50 mg/kg, 1 h
  Temperature decrease %: 17.1%
[4]; os, 50 mg/kg, 6 h
  Temperature decrease %: 27.1%
[4]; os, 50 mg/kg, 24 h
  Temperature decrease %: 29.1%
[4]; os, 75 mg/kg, 1 h
  Temperature decrease %: 19.6%
[4]; os, 75 mg/kg, 6 h
  Temperature decrease %: 30.1%
[4]; os, 75 mg/kg, 24 h
  Temperature decrease %: 43.1%
[4]; os, 100 mg/kg, 1 h
  Temperature decrease %: 23.1%
[4]; os, 100 mg/kg, 6 h
  Temperature decrease %: 33.0%
[4]; os, 100 mg/kg, 24 h
  Temperature decrease %: 42.1%
[5]; 50 mg/kg
  Index gastric damage: 8
  Index gastric damage, signed figure (untitled; difference from Carrier index 8): +0
  Mean number lesions: 1
  Incidence % / 10: 6 %/10
  Mean number severity: 1
[5]; 100 mg/kg
  Index gastric damage: 11
  Index gastric damage, signed figure (untitled; difference from Carrier index 8): +3
  Mean number lesions: 2
  Incidence % / 10: 7 %/10
  Mean number severity: 2
[5]; 200 mg/kg
  Index gastric damage: 14
  Index gastric damage, signed figure (untitled; difference from Carrier index 8): +6
  Mean number lesions: 3
  Incidence % / 10: 9 %/10
  Mean number severity: 2
[6]; ip
  LD50: 1430 mg/kg
[6]; po
  LD50: > 1500 mg/kg
[7]; i.p., 10 mg/kg, 3 h
  Oedema inhibition %: 35.6%
[7]; i.p., 10 mg/kg, 6 h
  Oedema inhibition %: 37.0%
[7]; i.p., 10 mg/kg, 24 h
  Oedema inhibition %: 0.0%
[7]; i.p., 50 mg/kg, 3 h
  Oedema inhibition %: 50.1%
[7]; i.p., 50 mg/kg, 6 h
  Oedema inhibition %: 50.0%
[7]; i.p., 50 mg/kg, 24 h
  Oedema inhibition %: 6.1%
[7]; i.p., 100 mg/kg, 3 h
  Oedema inhibition %: 71.0%
[7]; i.p., 100 mg/kg, 6 h
  Oedema inhibition %: 71.5%
[7]; i.p., 100 mg/kg, 24 h
  Oedema inhibition %: 22.9%
[7]; os, 10 mg/kg, 3 h
  Oedema inhibition %: 30.4%
[7]; os, 10 mg/kg, 6 h
  Oedema inhibition %: 37.9%
[7]; os, 10 mg/kg, 24 h
  Oedema inhibition %: 1.2%
[7]; os, 50 mg/kg, 3 h
  Oedema inhibition %: 51.4%
[7]; os, 50 mg/kg, 6 h
  Oedema inhibition %: 49.0%
[7]; os, 50 mg/kg, 24 h
  Oedema inhibition %: 7.9%
[7]; os, 100 mg/kg, 3 h
  Oedema inhibition %: 72.3%
[7]; os, 100 mg/kg, 6 h
  Oedema inhibition %: 70.0%
[7]; os, 100 mg/kg, 24 h
  Oedema inhibition %: 25.1%
[8]; ip
  DL50 (LD50): 1200 mg/kg
[8]; po
  DL50 (LD50): 1470 mg/kg

## COc1ccccc1OC(=O)CNC(=O)Cc1ccc(C(=O)c2ccc(C)cc2)n1C [Compound 4, 1-methyl-5-p-methylbenzoylpyrrole-2-acetamidoacetate of o-methoxyphenol]
[9]
  antinflammatory, analgesic, antipyretic, antisecretive and cough suppressing activity versus Tolmetin (in words): greater than that of Tolmetin
  duration of action versus Tolmetin (in words): longer lasting action
[10]
  toxicity versus Tolmetin (in words): lower toxicity

Source: patent publication US4568690A, “1-Methyl-5-p-methylbenzoylpyrrole-2-acetamidoacetanilides with antiinflammatory, analgesic, antipyretic and anti-platelet aggregant activity” (priority 1983, dated 1986)
